Values of other authors, collected in patent publication US20230330230A1, “SENSITISER FOR CANCER TREATMENT” (KORTUC INC, priority 2020, published 2023).

How the values were obtained:
[1] = system: osteosarcoma (HS-Os-1) cell line
[2] = system: prostate cancer (PC-3) cell line
[3] = 0.1 mM H2O2 prior to IR, without DNA double strand breaks

For `OO` [H2O2, hydrogen peroxide], the “response to H2O2 alone” value [1] is listed as “extreme resistance”, the “effect of H2O2 prior to IR” value [1, 3] is listed as “enhanced cytotoxicity” and the “response to H2O2 alone” value [2] is listed as “extreme resistance”. The “effect of H2O2 prior to IR” value [2, 3] was “enhanced cytotoxicity”.
